According to patent publication US20120071505A1, “SUBSTITUTED PYRIDINE DERIVATIVES, PHARMACEUTICAL COMPOSITIONS, AND METHODS OF USE TO TREAT OXIDATIVE STRESS” (HIGH POINT PHARMACEUTICALS, LLC, priority 2009, published 2012):

system: HMOX1 mRNA expression; assay: Oxidative stress gene expression (mRNA) protocol: heme oxygenase mRNA induction in NHLF cells (Quantigene Plex 2.0, Luminex); format: cell-based, human; conditions: 2.5 μM compound, 6 h, normalized to GAPDH, above DMSO treated cells
Procedure: Oxidative Stress Gene Expression (mRNA) Protocol
Cell Culture. Normal Human Fibroblast (NHLF), were obtained from Lonza. Cultures of cells were maintained in Fibroblast Growth Medium (FGM-2) medium supplemented with 2% fetal bovine serum (FBS), Fibroblast Growth Factor (hFGF-B) 0.5 ml, Insulin 0.5 ml, gentamicin/amphotericin-B 0.5 mL at 37° C. in a humidified atmosphere of 5% CO2. Primary isolates of cell are cultured in T-225 flasks (Corning) as per instructions from the vendor. Cells are grown to 80% confluence before harvesting. Cells are harvested by first washing with 5 mL of Hepes buffered saline solution (Lonza). The buffered salt solution is aspirated and then 5 mL of a solution of Trypsin-EDTA is added to detach the cells from the culture flask. To this mixture 5 mL of Trypsin neutralization solution (Lonza) is added Trypsin. The mixture is centrifuged at 500×g for 10 minutes at 4° C. The cell pellet is resuspended to a final concentration of one million cells per milliliter in fetal bovine serum containing 6% DMSO. The cells are then dispensed into cyrovials and frozen in liquid nitrogen for storage.
Heme oxygenase mRNA expression. Secondary growth of NHLF cells are used for all assays. Cell are thawed and then placed into culture in T225 flasks. The cells are grown to 80% confluency and harvested by washing once with HEPES buffered saline solution and then trypsinized. Equal numbers (7×10^3 cells per well) of NHLF cells were plated in 96 well tissue culture plates (Corning). Cells were incubated overnight in FGM-2 medium prior to exposure to compound. Cells were treated with either DMSO or a compound of the Examples above for 6 h. Preparation of cell lysates was carried out according to instructions using the Quantigene Reagent system 2.0 protocol (Panomics). Heme oxygenase mRNA induction was detected from cell lysate using the Quantigene Plex 2.0 Assay Kit (Panomics) on the Luminex platform (BIO-RAD). Expression of GAPDH mRNA was used as the internal control for the Quantigen Plex 2.0 Assay. The data in Table 1 represents the fold change of heme oxygenase mRNA expression, normalized to control values, above DMSO treated cells.

Row | Structure (SMILES) | Fold Change of HMOX1 mRNA expression (at 2.5 μM)
1 | CC1OCCC1S(=O)(=O)c1c(-c2ccc(C(F)(F)F)cc2)cnc2ccccc12 (centres unmarked) [Example 27, 3-(4-trifluoromethyl-phenyl)-4-(2-methyl-tetrahydro-furan-3-sulfonyl)-quinoline] | 27.5 (at 2.5 μM) fold

same assay, conditions: 3 μM compound, 6 h, normalized to GAPDH, above DMSO treated cells

Row | Structure (SMILES) | Fold Change of HMOX1 mRNA expression (at 3 μM)
2 | CCOC(=O)c1cnc2c(OC)cccc2c1S(=O)(=O)C1CCCCC1 [Example 3, 4-Cyclohexanesulfonyl-8-methoxy-quinoline-3-carboxylic acid ethyl ester] | 6.7 (at 3 μM) fold
3 | COc1cccc2c(S(=O)(=O)C3CCOC3C)c(C(=O)OC3CCCCC3)cnc12 (centres unmarked) [Example 8, 8-Methoxy-4-(2-methyl-tetrahydro-furan-3-sulfonyl)-quinoline-3-carboxylic acid cyclohexyl ester] | 4.5 (at 3 μM) fold
4 | COc1cccc2c(S(=O)(=O)C3CCOC3C)c(C(=O)OCC3CCCCC3)cnc12 (centres unmarked) [Example 9, 8-Methoxy-4-(2-methyl-tetrahydro-furan-3-sulfonyl)-quinoline-3-carboxylic acid cyclohexylmethyl ester] | 2 (at 3 μM) fold
5 | COc1cccc2c(S(=O)(=O)C3CCOC3C)c(C(=O)OCC3CCCO3)cnc12 (centres unmarked) [Example 11, 8-Methoxy-4-(2-methyl-tetrahydro-furan-3-sulfonyl)-quinoline-3-carboxylic acid tetrahydro-furan-2-ylmethyl ester] | 2.7 (at 3 μM) fold
6 | CCCS(=O)(=O)c1cnc2ccc(OC)cc2c1NC1CCCC1 [Example 29, cyclopentyl-[6-methoxy-3-(propane-1-sulfonyl)-quinolin-4-yl]amine] | 4.0 (at 3 μM) fold
7 | CCCS(=O)(=O)c1cnc2ccc(OC)cc2c1NC1CCCCC1 [Example 30, cyclohexyl-[6-methoxy-3-(propane-1-sulfonyl)-quinolin-4-yl]-amine] | 4.0 (at 3 μM) fold
8 | CCCS(=O)(=O)c1cnc2c(OC(F)(F)F)cccc2c1NC1CCCC1 [Example 31, cyclopentyl-[3-(propane-1-sulfonyl)-8-trifluoromethoxy-quinolin-4-yl]-amine] | 4.0 (at 3 μM) fold

same assay, conditions: 10 μM compound, 6 h, normalized to GAPDH, above DMSO treated cells

Row | Structure (SMILES) | Fold Change of HMOX1 mRNA expression (at 10 μM)
9 | CCOC(=O)c1cnc2c(OC)cccc2c1S(=O)(=O)Cc1ccoc1 [Example 5, 4-(Furan-3-ylmethanesulfonyl)-8-methoxy-quinoline-3-carboxylic acid ethyl ester] | 2.0 (at 10 μM) fold
10 | CCCC(=O)c1cnc2c(OC)cccc2c1S(=O)(=O)C1CCOC1C (centres unmarked) [Example 7, 1-[8-methoxy-4-(2-methyl-tetrahydro-furan-3-sulfonyl)-quinolin-3-yl]-butan-1-one] | 2.8 (at 10 μM) fold
11 | COCCCOC(=O)c1cnccc1S(=O)(=O)C1CCOC1C (centres unmarked) [Example 21, 4-(2-Methyl-tetrahydro-furan-3-sulfonyl)-nicotinic acid 3-methoxy-propyl ester] | 6.0 (at 10 μM) fold
12 | COCCCOC(=O)c1c[n+]([O-])ccc1S(=O)(=O)C1CCOC1C (centres unmarked) [Example 22, 4-(2-Methyl-tetrahydro-furan-3-sulfonyl)-1-oxy-nicotinic acid 3-methoxy-propyl ester] | 5.6 (at 10 μM) fold

same assay, conditions: Homo sapiens, 3.75 μM compound, 6 h, normalized to GAPDH, above DMSO treated cells, read-out: Fold Change of HMOX1 mRNA expression at 3.75 μM

Row | Structure (SMILES) | fold induction at 3.75 µM
13 | CCOC(=O)c1cnc2c(OC)cccc2c1S(C)(=O)=O [Example 1, 4-methanesulfonyl-8-methoxy-quinoline-3-carboxylic acid ethyl ester] | 3.4
14 | CCOC(=O)c1cnc2c(OC)cccc2c1S(=O)(=O)C1CCOC1C (centres unmarked) [Example 2, 8-Methoxy-4-(2-methyl-tetrahydro-furan-3-sulfonyl)-quinoline-3-carboxylic acid ethyl ester] | 48.6
15 | CCOC(=O)c1cnc2c(OC)cccc2c1S(=O)(=O)c1ccoc1C [Example 4, 8-Methoxy-4-(2-methyl-furan-3-sulfonyl)-quinoline-3-carboxylic acid ethyl ester] | 5.8
16 | CCOC(=O)c1cnc2ccccc2c1S(=O)(=O)C1CCOC1C (centres unmarked) [Example 6, 4-(2-Methyl-tetrahydro-furan-3-sulfonyl)-quinoline-3-carboxylic acid ethyl ester] | 64.7
17 | COCCCOC(=O)c1cnc2c(OC)cccc2c1S(=O)(=O)C1CCOC1C (centres unmarked) [Example 10, 8-Methoxy-4-(2-methyl-tetrahydro-furan-3-sulfonyl)-quinoline-3-carboxylic acid 3-methoxy-propyl ester] | 28.5
18 | COCCCOC(=O)c1cnc2c(OC)cccc2c1S(=O)(=O)c1ccoc1C [Example 12, 8-Methoxy-4-(2-methyl-furan-3-sulfonyl)-quinoline-3-carboxylic acid 3-methoxy-propyl ester] | 15.3
19 | COCCCOC(=O)c1cnc2c(OC)cccc2c1S(=O)(=O)Cc1ccoc1 [Example 13, 4-(Furan-3-ylmethanesulfonyl)-8-methoxy-quinoline-3-carboxylic acid 3-methoxy-propyl ester] | 17.2
20 | COCCCOC(=O)c1cnc2ccccc2c1S(=O)(=O)C1CCOC1C (centres unmarked) [Example 14, 4-(2-Methyl-tetrahydro-furan-3-sulfonyl)-quinoline-3-carboxylic acid 3-methoxy-propyl ester] | 52.4
21 | COc1cccc2c(S(=O)(=O)c3ccoc3C)c(C(=O)OCC3CCCO3)cnc12 (centres unmarked) [Example 15, 8-Methoxy-4-(2-methyl-furan-3-sulfonyl)-quinoline-3-carboxylic acid tetrahydro-furan-2-ylmethyl ester] | 4.4
22 | COc1cccc2c(S(=O)(=O)Cc3ccoc3)c(C(=O)OCC3CCCO3)cnc12 (centres unmarked) [Example 16, 4-(Furan-3-ylmethanesulfonyl)-8-methoxy-quinoline-3-carboxylic acid tetrahydro-furan-2-ylmethyl ester] | 2.3
23 | CC1OCCC1S(=O)(=O)c1c(C(=O)OCC2CCCO2)cnc2ccccc12 (centres unmarked) [Example 17, 4-(2-Methyl-tetrahydro-furan-3-sulfonyl)-quinoline-3-carboxylic acid tetrahydro-furan-2-ylmethyl ester] | 7.8
24 | CCCCCOC(=O)c1cnc2c(OC)cccc2c1S(=O)(=O)c1ccoc1C [Example 18, 8-Methoxy-4-(2-methyl-furan-3-sulfonyl)-quinoline-3-carboxylic acid pentyl ester] | 10.2
25 | COc1cccc2c(S(=O)(=O)c3ccoc3C)c(C(=O)OCC3CCCC3)cnc12 [Example 19, 8-Methoxy-4-(2-methyl-furan-3-sulfonyl)-quinoline-3-carboxylic acid cyclopentylmethyl ester] | 12.6
26 | CC1OCCC1Sc1cnc2ccccc2c1S(=O)(=O)C1CCOC1C (centres unmarked) [Example 20, 4-(2-methyl-tetrahydro-furan-3-sulfonyl)-3-(2-methyl-tetrahydro-furan-3-ylsulfanyl)-quinoline] | 25.9
27 | CCCS(=O)(=O)c1ccncc1C(=O)OCCCOC [Example 23, 4-(Propane-1-sulfonyl)-nicotinic acid 3-methoxy-propyl ester] | 4.2
28 | COCCCOC(=O)c1cnccc1S(=O)(=O)CC1CCCCC1 [Example 24, 4-Cyclohexylmethanesulfonyl-nicotinic acid 3-methoxy-propyl ester] | 5.3
29 | COCC#Cc1cnc2ccccc2c1S(=O)(=O)C1CCOC1C (centres unmarked) [Example 25, 3-(3-methoxy-prop-1-ynyl)-4-(2-methyl-tetrahydro-furan-3-sulfonyl)-quinoline] | 13
30 | CCOC(=O)/C=C/c1cnc2ccccc2c1S(=O)(=O)C1CCOC1C (centres unmarked) [Example 26, (E)-3-[4-(2-methyl-tetrahydro-furan-3-sulfonyl)-quinolin-3-yl]acrylic acid ethyl ester] | 13.2
31 | COc1ccc(-c2cnc3ccccc3c2S(=O)(=O)C2CCOC2C)cc1 (centres unmarked) [Example 28, 3-(4-methoxy-phenyl)-4-(2-methyl-tetrahydro-furan-3-sulfonyl)-quinoline] | 12.7
32 | CCCS(=O)(=O)c1cnc2c(OC(F)(F)F)cccc2c1NC1CCCCC1 [Example 32, cyclohexyl-[3-(propane-1-sulfonyl)-8-trifluoromethoxy-quinolin-4-yl]-amine] | 9.8
